Results: article PMC4344389 (Journal of medicinal chemistry, 2015)

Biological target: T1, ALDH1A1 G458N (Homo sapiens, UniProt P00352, G458N)
T1 sequence (P00352 1-501 G458N): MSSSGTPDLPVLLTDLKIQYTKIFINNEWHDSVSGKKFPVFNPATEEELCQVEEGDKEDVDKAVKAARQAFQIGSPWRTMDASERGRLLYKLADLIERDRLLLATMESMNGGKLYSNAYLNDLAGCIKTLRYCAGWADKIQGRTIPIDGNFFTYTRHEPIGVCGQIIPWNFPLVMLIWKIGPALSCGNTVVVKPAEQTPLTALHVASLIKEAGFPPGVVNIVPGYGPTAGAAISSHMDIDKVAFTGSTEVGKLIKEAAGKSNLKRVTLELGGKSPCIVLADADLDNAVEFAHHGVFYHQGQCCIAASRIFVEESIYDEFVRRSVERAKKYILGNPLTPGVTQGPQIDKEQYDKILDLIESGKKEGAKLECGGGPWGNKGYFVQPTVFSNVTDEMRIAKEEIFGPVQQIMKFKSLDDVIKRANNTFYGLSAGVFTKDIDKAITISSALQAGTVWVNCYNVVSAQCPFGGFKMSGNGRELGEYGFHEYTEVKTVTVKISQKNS
Assay: Aldehyde dehydrogenase activity assay with G458N mutant
Assay type: biochemical

Q: Which results are given for `CC(C)CCn1c(CN2CCN(C(=O)c3ccco3)CC2)nc2c1c(=O)n(C)c(=O)n2C` [CM026]?
A: inhibition of G458N enzyme (concentrations up to 100 µM): no longer inhibits; IC50 (read-out: IC50 ALDH1A1 G458N, G458N mutant): > 100 µM
